Reference: the supplement of paper PMC10307832

Legend:
Assay in all cases: relative viability (nuclei count vs DMSO), 5 days (fraction); higher = more cells survive
[1] = compound: NS(=O)(=O)OC[C@@H]1C[C@@H](n2ccc3c(N[C@H]4CCc5ccccc54)ncnc32)C[C@@H]1O [MLN4924] + N=C(N)NC(=N)NCCc1ccccc1 [Phenformin] (partner 250 µM)
Procedure, shortened: (§1)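 Lung cancer cell lines, seeded in 1536-well plates, were treated the following day by pin tool with a single drug or with five library-drug doses (not always all listed) in √10 steps on top of a fixed anchor-drug dose. Cells were fixed and nuclei stained in one step after 5 days, and nuclei were counted. Relative viability is the nuclei count for treated wells divided by that for vehicle wells, reported as medians of duplicate plates.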

[2] = compound: C1CC(C1)(C(=O)O)C(=O)O.[NH2-].[NH2-].[Pt+2] [Carboplatin] + COc1cccc2cc(-c3nc([C@H]4CC[C@H](C(=O)O)CC4)n4ncnc(N)c34)[nH]c12 [OSI-027] (partner 0.5 µM)
Procedure, shortened: as §1

[3] = compound: NS(=O)(=O)OC[C@@H]1C[C@@H](n2ccc3c(N[C@H]4CCc5ccccc54)ncnc32)C[C@@H]1O [MLN4924] + COc1cccc2cc(-c3nc([C@H]4CC[C@H](C(=O)O)CC4)n4ncnc(N)c34)[nH]c12 [OSI-027] (partner 0.5 µM)
Procedure, shortened: as §1

[4] = compound: CC[C@H](C)N1C=C(C2=C(C=C(C=C21)C3=CN=C(C=C3)N4CCNCC4)C(=O)NCC5=C(C=C(NC5=O)C)C)C [GSK126] + NC(=O)Nc1cc(-c2cccc(F)c2)sc1C(=O)N[C@H]1CCCNC1 [AZD7762] (partner 0.2 µM)
Procedure, shortened: as §1

Cell Line	relative viability ([1]; first compound 0.04 µM)	relative viability ([1]; first compound 0.1265 µM)	relative viability ([1]; first compound 0.4 µM)	relative viability ([1]; first compound 1.265 µM)	relative viability ([1]; first compound 4 µM)	relative viability ([2]; first compound 0.08 µM)	relative viability ([2]; first compound 0.253 µM)	relative viability ([2]; first compound 0.8 µM)	relative viability ([2]; first compound 2.53 µM)	relative viability ([2]; first compound 8 µM)	relative viability ([3]; first compound 0.04 µM)	relative viability ([3]; first compound 0.1265 µM)	relative viability ([3]; first compound 0.4 µM)	relative viability ([3]; first compound 1.265 µM)	relative viability ([3]; first compound 4 µM)	relative viability ([4]; first compound 0.08 µM)	relative viability ([4]; first compound 0.253 µM)	relative viability ([4]; first compound 0.8 µM)	relative viability ([4]; first compound 2.53 µM)	relative viability ([4]; first compound 8 µM)
NCI-H1651	0.347	0.317	0.313	0.171	0.157	0.734	0.662	0.706	0.506	0.487	0.694	0.828	0.866	0.398	0.161	0.534	0.416	0.467	0.537	0.364
LC-2-ad	0.506	0.491	0.372	0.223	0.203	0.877	0.825	0.778	0.696	0.404	0.952	0.727	0.439	0.224	0.262	0.851	0.866	0.858	0.953	0.92
NCI-H1734	0.339	0.44	0.229	0.118	0.122	0.707	0.674	0.63	0.528	0.572	0.498	0.832	0.304	0.124	0.142	0.597	0.497	0.526	0.576	0.531
NCI-H460	0.548	0.448	0.496	0.0336	0.0252	0.778	0.708	0.631	0.332	0.0817	0.739	0.781	0.893	0.0922	0.0324	0.616	0.5	0.594	0.538	0.546
NCI-H838	0.538	0.319	0.263	0.127	0.128	0.468	0.32	0.439	0.364	0.391	0.364	0.241	0.224	0.154	0.166	1.1	0.932	0.873	0.916	0.857
NCI-H2347	0.376	0.453	0.381	0.21	0.302	0.42	0.421	0.409	0.423	0.324	0.39	0.375	0.354	0.214	0.29	0.757	0.707	0.711	0.723	0.783
NCI-H1395	0.447	0.499	0.481	0.382	0.357	0.83	0.597	0.674	0.527	0.52	0.641	0.606	0.602	0.349	0.39	0.392	0.381	0.399	0.399	0.342
NCI-H647	0.367	0.348	0.118	0.0487	0.0541	0.724	0.637	0.692	0.57	0.575	0.598	0.472	0.475	0.0477	0.0384	0.465	0.495	0.497	0.507	0.371
